The target of assay [1] is T1, Toxoplasma gondii prolyl-tRNA synthetase (TgPRS) (Toxoplasma gondii, UniProt S8G8I1).
T1 construct: gene TGME49_219850; length 334–830
The assay can be described thus: co-crystal structure with L-pro; aminoacylation inhibition (malachite green); thermal shift (ΔTm […] °C with L-Pro). Type of assay: biochemical.

The subject of a further assay is T2, Toxoplasma gondii WT.
T2 construct: RH
The assay can be described thus: microbe, parasite or virus in culture. Conditions: Fibroblast, 48 h. On the set-up: species or system human foreskin fibroblasts (HFF); T. gondii RH NLuc tachyzoite growth in HFF monolayer, Nano-Glo luciferase luminescence. The protocol: Compounds were synthesized (HPLC purity > 95%) according to reported procedures. A confluent Human Foreskin Fibroblast (HFF) monolayer was infected with 2,000 tachyzoites of RH parasites expressing the NLuc luciferase (RH NLuc) for 2 h to allow parasite invasion. Each compound was added to the culture medium, and infected cells were incubated at 37° C for 48 h. To measure luminescence, the medium was replaced by 50 μL of PBS, and the luminescence assay was performed using Nano-Glo Luciferase Assay System according to the manufacturer’s instructions (Promega). After 3 min of incubation, the luminescence was measured using the CLARIOstar (BMG Labtech) plate reader. EC50 was determined using a non-linear regression analysis of normalized data assuming a sigmoidal dose-response. […] Statistical analyses were performed using a one-way ANOVA test with GraphPad software.  Fig 4 Activity of five compounds on PRS edited parasites. A-D) EC50 values for L95, L96, L97, and L36 were determined for wild-type (WT) and the engineered PRS mutant strains (T477A and T592S). Data are mean value ±SD from at least 2 independent biological replicates, each with 3 technical replicates. Associated dose-response curves are shown in S2C Fig. Higher EC50 values for the mutants confirm that PRS is the molecular target of all five compounds tested. The P-values were calculated using one-way ANOVA analysis and multiple-comparison post hoc tests. n.s., not significant. Associated dose-response curves are shown in S1 Fig. E) The EC50 (nM) values for the engineered PRS mutant strains (T477A and T592S) are shown in comparison with the TgPRS wild type. F) The catalytic cavity of TgPRS is shown with two inhibitors along with their electron densities–HFG (green) and L95 (red)–bound to the tRNA and L-pro binding sites and the ATP binding site respectively. The ribbon of PRS is in cyan whilst the resistance-conferring mutating residues T477 and T592 to L35 are shown in purple. (n.d.–not detected).

The target in assay [2] is T1, Toxoplasma gondii prolyl-tRNA synthetase (TgPRS). The assay can be described thus: co-crystal structure with L-pro; aminoacylation inhibition (malachite green); thermal shift (ΔTm […] °C with L-Pro). Type of assay: biochemical. The source holds these as a separate data set.
The target of assay [3] is T3, Homo sapiens prolyl-tRNA synthetase (HsPRS) (Homo sapiens, UniProt P07814).
T3 construct: gene EPRS1; length 1015–1506
T3 sequence (P07814 1015-1506): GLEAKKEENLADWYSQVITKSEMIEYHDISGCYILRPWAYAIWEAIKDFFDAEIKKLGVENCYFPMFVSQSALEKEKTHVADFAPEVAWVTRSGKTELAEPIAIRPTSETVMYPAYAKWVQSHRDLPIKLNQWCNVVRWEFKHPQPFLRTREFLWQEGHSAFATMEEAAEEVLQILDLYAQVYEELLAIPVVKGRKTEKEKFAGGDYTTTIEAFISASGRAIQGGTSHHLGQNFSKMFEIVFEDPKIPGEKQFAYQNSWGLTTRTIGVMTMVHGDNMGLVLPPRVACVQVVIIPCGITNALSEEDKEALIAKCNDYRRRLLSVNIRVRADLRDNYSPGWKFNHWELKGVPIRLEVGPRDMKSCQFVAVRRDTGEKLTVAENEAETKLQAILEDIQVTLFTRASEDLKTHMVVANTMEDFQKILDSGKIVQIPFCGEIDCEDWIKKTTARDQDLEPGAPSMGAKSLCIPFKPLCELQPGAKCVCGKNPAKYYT
The assay can be described thus: co-crystal structure with L-pro; aminoacylation inhibition; thermal shift (ΔTm […] °C with L-pro). Type of assay: binding.

The target of assay [4] is T1, Toxoplasma gondii prolyl-tRNA synthetase (TgPRS). The assay can be described thus: co-crystal structure with L-pro; aminoacylation inhibition (malachite green); thermal shift (ΔTm […] °C with L-Pro). The assay is classed as biochemical. The source holds these as a separate data set.
Assay [5] shares this target. The assay is described as above. The assay is classed as biochemical. The source holds these as a separate data set.
Assay [6] deals with T3, Homo sapiens prolyl-tRNA synthetase (HsPRS). Kind of assay: co-crystal structure with L-pro; aminoacylation inhibition; thermal shift (ΔTm […] °C with L-pro). The assay is classed as binding. The source holds these as a separate data set.
Assay [7] concerns the target T1, Toxoplasma gondii prolyl-tRNA synthetase (TgPRS). Kind of assay: co-crystal structure with L-pro; aminoacylation inhibition (malachite green); thermal shift (ΔTm […] °C with L-Pro). Type of assay: biochemical. The source holds these as a separate data set.
The target of assay [8] is T3, Homo sapiens prolyl-tRNA synthetase (HsPRS). The assay can be described thus: co-crystal structure with L-pro; aminoacylation inhibition; thermal shift (ΔTm […] °C with L-pro). The assay is classed as binding. The source holds these as a separate data set.

Each structure is given as a SMILES string. Read-outs that look alike come from different tables or passages of the source.

T1 sequence (S8G8I1 entry or part of it): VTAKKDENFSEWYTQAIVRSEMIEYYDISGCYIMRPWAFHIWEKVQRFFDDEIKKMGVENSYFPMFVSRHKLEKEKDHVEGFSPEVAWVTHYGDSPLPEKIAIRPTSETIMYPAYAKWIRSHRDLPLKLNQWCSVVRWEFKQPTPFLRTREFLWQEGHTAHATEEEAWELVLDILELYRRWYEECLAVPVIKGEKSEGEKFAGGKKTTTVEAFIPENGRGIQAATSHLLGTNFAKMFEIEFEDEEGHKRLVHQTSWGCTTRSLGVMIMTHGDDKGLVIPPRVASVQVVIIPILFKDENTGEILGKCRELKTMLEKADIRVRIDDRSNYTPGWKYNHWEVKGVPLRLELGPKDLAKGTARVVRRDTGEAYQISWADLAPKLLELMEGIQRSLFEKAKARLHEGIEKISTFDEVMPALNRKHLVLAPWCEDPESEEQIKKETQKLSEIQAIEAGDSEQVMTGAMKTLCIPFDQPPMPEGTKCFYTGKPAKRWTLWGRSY

Turning to `Cc1cc(N2CC[C@@](C#N)(C3(C)CC3)C2=O)cc(C(=O)NCc2cc(F)cc(-c3cnn(C)c3)c2)n1` [L35], the IC50 in [1] was determined as 9.2 nM. Also, the EC50 in the assay on Toxoplasma gondii WT (read-out: EC50 Treated-L35 (nM)) is 31 ± 12 nM.
For `CCc1nc(N)nc(N)c1-c1ccc(Cl)cc1` [PYR, pyrimethamine], the EC50 with Toxoplasma gondii WT (read-out: EC50 Treated-PYR (nM)) was 174 ± 60 nM.
With `Cc1cc(N2CCC(CO)(C3CC3)C2=O)cc(C(=O)NCc2cc(F)cc(-c3cnn(C)c3)c2)n1` (centres unmarked) [L97], in [2], the half-maximal inhibitory concentration (IC50) amounted to 50 nM. The “co-crystal structure with L-pro; aminoacylation inhibition; thermal shift (ΔTm 1)” value in assay [3] was “The complex structure of HsPRS with L95, L96, and L97 was determined”. The EC50 in the assay on Toxoplasma gondii WT (read-out: EC50 Treated-L97 (nM)) amounted to 544 ± 130 nM.
`Cc1cc(N2CC[C@](C#N)(C3(C)CC3)C2=O)cc(C(=O)NCc2cc(F)cc(-c3cnn(C)c3)c2)n1` [L36]: the IC50 in [4] was 2410 nM. Besides, in the assay with Toxoplasma gondii WT (read-out: EC50 Treated-L36 (nM)), the EC50 turned out to be 5800 ± 350 nM.
`COc1cncc(-c2cc(F)cc(CNC(=O)c3cc(N4CC[C@@](C#N)(C5CC5)C4=O)cc(C)n3)c2)c1` [L96]: in assay [5], the IC50 was 79.7 nM. For the same molecule, the “co-crystal structure with L-pro; aminoacylation inhibition; thermal shift (ΔTm 2)” value in [6] was “The complex structure of HsPRS with L95, L96, and L97 was determined”. The EC50 with Toxoplasma gondii WT (read-out: EC50 Treated-L96 (nM)) worked out at 106 ± 36 nM.
`Cc1cc(N2CC[C@@](C#N)(C3CC3)C2=O)cc(NC(=O)Cc2ccccc2)n1` [L95]: the IC50 in assay [7] worked out at 140 nM. Moreover, in assay [8], the “co-crystal structure with L-pro; aminoacylation inhibition; thermal shift (ΔTm 1)” value was “The complex structure of HsPRS with L95, L96, and L97 was determined”. The EC50 in the assay on Toxoplasma gondii WT (read-out: EC50 Treated-L95 (nM)) came to 277 ± 6 nM.

For orientation: IC50 means the concentration at which inhibition is half-maximal. A word on the EC50: it is the concentration needed to bring the measured effect to its halfway point.

Source of the values: publication PMC9974123, “Targeting prolyl-tRNA synthetase via a series of ATP-mimetics to accelerate drug discovery against toxoplasmosis” (PLOS Pathogens, 2023).
